Test results from publication PMC3334764, “Effect of fluid loading during hypovolaemic shock on caspofungin pharmacokinetic parameters in pig” (Critical Care, 2011).
Like-named read-outs stand apart in the source and are kept apart here. Marks after values point to notes of the source that are not given here.

What was measured:
[1] = Caspofungin plasma pharmacokinetics in anaesthetised, ventilated pigs (shock vs control); type: in vivo; details: pig, 70 mg one-hour iv infusion; for level at 4 h / AUC(0-t): iv, 70 mg; for level at 4 h: four hours after start of infusion, read-out: Cp (caspofungin plasma concentration at four hours); for AUC(0-t): unit as printed in abstract, read-out: area under curve (AUC) from zero to four hours
Protocol: (§1) In the shock group (n = 12), the animals were bled through the carotid catheter (Figure 1). Blood withdrawal was started at a rate of 0.8 to 1 mL/kg/minute and continued until all three of the following end points were achieved: MAP of 40 to 45 mmHg, decrease in CI greater than 40% and SVO2 lower than 30%. End points were maintained for a period of 120 minutes by means of further bleeding. During the four-hour resuscitation period, the animals received isotonic saline at a rate of 2 mL/kg/minute. The infusions were stopped when the CI reached 90% of the baseline value and SVO2 was above 50%, and the infusions were then adjusted to keep these parameters constant until the animals were killed. At the beginning of the resuscitation period, the animals received a one-hour intravenous infusion of 70 mg of caspofungin acetate (Cancidas; Merck Sharp & Dohme-Chibret, Paris, France) diluted in 50 mL of saline, which was injected into the right atrium through the proximal lumen of the pulmonary arterial catheter via a pump-driven syringe. A second group of animals (n = 16) used as controls was anaesthetised and ventilated, but they were not subjected to bleeding and fluid loading. These animals were also killed four hours after the start of the caspofungin infusion.
(§2) EDTA-blood samples were drawn through a dedicated arterial catheter just before and 15, 30, 60 and 90 minutes and 2 hours, 3 hours and 4 hours after the caspofungin infusions were started in both groups. Then the animals were immediately killed, and lung tissue samples (2 cm × 2 cm × 2 cm) were surgically removed from nondependent parts of both the lower and upper lobes after sternotomy. Plasma was obtained by blood centrifugation at 1,500 g for 15 minutes. Plasma and lung samples were immediately stored at -80°C. The remaining lung tissues were used for the determination of extravascular lung water indexed to body weight (EVLWI) by using a gravimetric method as previously described. Caspofungin acetate was kindly provided by Merck Sharp & Dohme-Chibret. Plasma and lung caspofungin concentrations were determined by using a validated high-performance liquid chromatography method with fluorescence detection after a solid-phase extraction (Bond Elut™ column; Agilent Technologies, Santa Clara, CA, USA). Caspofungin and the internal standard (IS) propranolol were separated on a LiChrospher column (100 RP-8e (5 μm); Merck Chemicals KGaA, Darmstadt, Germany) using a mobile phase consisting of acetonitrile and 0.1% trifluoroacetic acid buffer (200:300 vol/vol) at a flow rate of 1 mL/minute. The retention times were 6 and 22 minutes for IS and caspofungin, respectively. The linearity range was 0.3 to 7.5 mg/L (r^2 > 0.998). The lower limit of quantification, defined as the lowest concentration that could be determined with a relative error and precision (relative standard deviation) less than 20%, was 0.3 μg/mL. Intraday and interday levels of interassay precision were 1.91% and 4.84% (0.5 μg/mL), 6.94% and 10.4% (3 μg/mL) and 7.84% and 12% (5 μg/mL) for serum samples. The maximal concentration (Cmax) was measured at the end of the infusion.
(§3) The AUC from zero to four hours (AUC0→4 hours) was determined using the trapezoidal rule. The concentration vs time data for both groups were modelled using the population approach method implemented in Monolix version 3.1 release 2 software. A two-compartment mammillary model was developed and parameterised in terms of central volume of distribution of caspofungin (V1) and elimination clearance of caspofungin (CL), peripheral volume of distribution of caspofungin (V2) and intercompartmental clearance of caspofungin (Q). The total apparent volume of distribution of caspofungin (Vd) was calculated as V1 + V2. The interindividual variability (ω) for each parameter and the residual variability of the model (σ) were estimated.

[2] = surgical ICU patients; 24-hour trough plasma concentration; cited from earlier work
Description: The pharmacokinetics of caspofungin have been recently studied in a cohort of surgical ICU patients. […] Therefore, the authors concluded that a dose adjustment may be necessary in some ICU patients, based on the monitoring of plasma conc ...

[3] = healthy humans, single dose of 70 mg, cited from earlier work
Protocol: In the early clinical development program for caspofungin, a target concentration of 1 μg/mL was used as a guide for concentrations likely to be efficacious. This target was determined on the basis of in vitro susceptibility test results and was selected as the concentration that exceeded the minimal inhibitory concentration at which 90% of Candida spp. isolates were inhibited.

[4] = Lung tissue caspofungin concentration and tissue-to-plasma ratio in pigs; type: in vivo; details: pig
Protocol: as §1
as §2, with “Intraday and interday levels of interassay precision were 1.91% and 4.84% (0.5 μg/mL), 6.94% and 10.4% (3 μg/mL) and 7.84% and 12% (5 μg/mL) for serum samples.” left out
Lung samples were weighed (200 ± 150 mg), homogenised with a 1.5-mL saline solution, ground for 15 minutes and centrifuged twice at 10,000 rpm for 10 minutes. […] Lung caspofungin concentrations (Ct) were determined four hours after starting the caspofungin infusion and are expressed as micrograms per gram of lung tissue. The tissue-to-plasma ratio for each group was calculated as R = (Ct/Cp) × 100, where Cp is the caspofungin plasma concentration at four hours.

[5] = Two-compartment population pharmacokinetic analysis (Monolix) of plasma caspofungin in pigs; type: in vivo; details: pig; for Q (intercompartmental clearance) / V1 (central volume of distribution) / V2 (peripheral volume of distribution) / clearance: two-compartment population estimate; for clearance: 70 mg one-hour iv infusion, read-out: CL (central elimination clearance) (converted)
Protocol: as §3

For CC[C@H](C)C[C@H](C)CCCCCCCCC(=O)N[C@H]1C[C@@H](O)[C@@H](NCCN)NC(=O)[C@@H]2[C@@H](O)CCN2C(=O)[C@H]([C@H](O)CCN)NC(=O)[C@H]([C@H](O)[C@@H](O)c2ccc(O)cc2)NC(=O)[C@@H]2C[C@@H](O)CN2C(=O)[C@H]([C@@H](C)O)NC1=O [caspofungin, caspofungin acetate], the “Cmax (maximum caspofungin plasma concentration)” value ([1]; control group (n = 16), no haemorrhage, measured at end of infusion, HPLC with fluorescence detection, median) was 33100 ng/mL, the level at 4 h ([1]; plasma, control group (n = 16), median) was 20700 ng/mL and the AUC(0-t) ([1]; plasma, control group, median) was 80800 ng·h/mL. The level at 4 h ([1]; plasma, shock group (n = 12), median) was 16100 ng/mL, the AUC(0-t) ([1]; plasma, shock group, median) was 60300 ng·h/mL and the “median AUC0→4 hours lower in the shock group than in the control group” value ([1]; shock vs control group) was 25%. For the same molecule, the “median maximal plasma concentration lower in the shock group than in the control group” value ([1]; shock vs control group) was 35%, the Cmax ([1]; plasma, shock group (n = 12), hypovolaemic shock then saline fluid loading, measured at end of infusion, HPLC with fluorescence detection, median, read-out: Cmax (maximum caspofungin plasma concentration)) was 21600 ng/mL and the “patients in whom the trough concentration at day 2 of treatment exceeded 1.0 μg/mL” value [2] was 75%. The “concentration at 24 hours (trough concentration)” value ([3]; mean (95% confidence interval, 1.18 to 1.71)) was 1420 ng/mL, the “mean plasma Cmax” value ([3]; mean (95% confidence interval, 10.87 to 13.33)) was 12040 ng/mL and the “Ct (lung caspofungin concentration at four hours)” value ([4]; control group (n = 16), 70 mg one-hour iv infusion, lung homogenate, four sampled lobes averaged, HPLC with fluorescence detection, median) was 1.64 µg/g. For the same molecule, the “Ratio = (Ct/Cp) × 100 (lung tissue-to-plasma ratio)” value ([4]; control group (n = 16), four hours after start of infusion, median) was 7.28%, the tissue level at time at 4 h ([4]; shock group (n = 12), 70 mg one-hour iv infusion, lung homogenate, four sampled lobes averaged, HPLC with fluorescence detection, median, read-out: Ct (lung caspofungin concentration at four hours)) was 1220 ng/g and the “Ratio = (Ct/Cp) × 100 (lung tissue-to-plasma ratio)” value ([4]; shock group (n = 12), four hours after start of infusion, median) was 7.76%. The “median lung caspofungin concentration lower in the shock group than in the control group” value ([4]; shock vs control group, four hours after start of infusion) was 25%, the “Q (intercompartmental clearance)” value ([5]; control group (n = 16)) was 4.23 L/h and the “V1 (central volume of distribution)” value ([5]; control group (n = 16)) was 0.98 L. The “V2 (peripheral volume of distribution)” value ([5]; control group (n = 16)) was 1.43 L, the clearance ([5]; plasma, iv, 70 mg, control group (n = 16)) was 4.83 mL/min and the clearance ([5]; plasma, iv, 70 mg, shock group (n = 12)) was 3.5 mL/min. The “Q (intercompartmental clearance)” value ([5]; shock group (n = 12)) was 8.16* L/hour, the “V1 (central volume of distribution)” value ([5]; shock group (n = 12)) was 0.96 L and the “V2 (peripheral volume of distribution)” value ([5]; shock group (n = 12)) was 2.8* L. It also gave a Vd ([5]; plasma, iv, 70 mg, shock group (n = 12), calculated as V1 + V2, read-out: Vd (total apparent volume of distribution)) of 3.9 L.
